Molecular target: T1, rat intestinal α-glucosidase
T1 construct: gene Si; native commercial rat intestinal preparation (Sigma I1630, usually intestinal acetone powder)
Assay: p-nitrophenyl-α-D-glucopyranoside hydrolysis, absorbance at […] nm
Assay type: biochemical
Conditions: 5 mM PNPG stock, pH 6.8-6.9, 37 °C, 10 min preincubation; positive control

## C[C@H]1O[C@H](O[C@H]2[C@H](O)[C@@H](O)[C@@H](O[C@H]3[C@H](O)[C@@H](O)C(O)O[C@@H]3CO)O[C@@H]2CO)[C@H](O)[C@@H](O)[C@@H]1N[C@H]1C=C(CO)[C@@H](O)[C@H](O)[C@H]1O (stereo partly shown) [acarbose]
  IC50 of inhibitory activity / α-Glucosidase: 510 ± 70 µg/mL
